These results are taken from ChEMBL document CHEMBL5143650, “Synthesis and biological evaluation of new series of quinazoline derivatives as EGFR/HER2 dual-target inhibitors” (Bioorg Med Chem Lett, 2022).

Some results are limits rather than exact numbers.

The nature of test [1]: Inhibition of recombinant human N-terminal His-tagged EGFR (676 to 1255 residues) expressed in Sf21 insect cells at 200 uM using kinase substrate 22 incubated for 30 mins in presence of ATP relative to control.
Test [2] can be described thus: Inhibition of recombinant human N-terminal His-tagged EGFR (676 to 1255 residues) expressed in Sf21 insect cells using kinase substrate 22 incubated for 30 mins in presence of ATP.
The next test concerns NCI-H358. In words: Antiproliferative activity against human NCI-H358 cells assessed as reduction in cell viability after 72 hrs by CCK-8 assay. Type of test: functional. Background: Formazan colour is commonly taken as a measure of viable cells.
For another test, the system named is PC-9. In words: Antiproliferative activity against human PC-9 cells expressing EGFR E746/A750 deletion mutant assessed as reduction in cell viability after 72 hrs by CCK-8 assay. Type of test: functional.
The test system of a further test is Calu-3. The test is described as follows: Antiproliferative activity against human Calu-3 cells assessed as reduction in cell viability after 72 hrs by CCK-8 assay. Type of test: functional.
Test [3] can be described thus: Antiproliferative activity against human NCI-H1781 cells expressing HER G776V mutant assessed as reduction in cell viability after 72 hrs by CCK-8 assay. Type of test: functional.
Test [4] concerns the target Epidermal growth factor receptor (Homo sapiens, UniProt P00533). The test is described as follows: Inhibition of recombinant human N-terminal GST-tagged EGFR (669 to 1210 residues) expressed in Sf21 insect cells using kinase substrate 22 incubated for 30 mins in presence of ATP.

Chain of Epidermal growth factor receptor (P00533 whole entry, the tested form may be a part): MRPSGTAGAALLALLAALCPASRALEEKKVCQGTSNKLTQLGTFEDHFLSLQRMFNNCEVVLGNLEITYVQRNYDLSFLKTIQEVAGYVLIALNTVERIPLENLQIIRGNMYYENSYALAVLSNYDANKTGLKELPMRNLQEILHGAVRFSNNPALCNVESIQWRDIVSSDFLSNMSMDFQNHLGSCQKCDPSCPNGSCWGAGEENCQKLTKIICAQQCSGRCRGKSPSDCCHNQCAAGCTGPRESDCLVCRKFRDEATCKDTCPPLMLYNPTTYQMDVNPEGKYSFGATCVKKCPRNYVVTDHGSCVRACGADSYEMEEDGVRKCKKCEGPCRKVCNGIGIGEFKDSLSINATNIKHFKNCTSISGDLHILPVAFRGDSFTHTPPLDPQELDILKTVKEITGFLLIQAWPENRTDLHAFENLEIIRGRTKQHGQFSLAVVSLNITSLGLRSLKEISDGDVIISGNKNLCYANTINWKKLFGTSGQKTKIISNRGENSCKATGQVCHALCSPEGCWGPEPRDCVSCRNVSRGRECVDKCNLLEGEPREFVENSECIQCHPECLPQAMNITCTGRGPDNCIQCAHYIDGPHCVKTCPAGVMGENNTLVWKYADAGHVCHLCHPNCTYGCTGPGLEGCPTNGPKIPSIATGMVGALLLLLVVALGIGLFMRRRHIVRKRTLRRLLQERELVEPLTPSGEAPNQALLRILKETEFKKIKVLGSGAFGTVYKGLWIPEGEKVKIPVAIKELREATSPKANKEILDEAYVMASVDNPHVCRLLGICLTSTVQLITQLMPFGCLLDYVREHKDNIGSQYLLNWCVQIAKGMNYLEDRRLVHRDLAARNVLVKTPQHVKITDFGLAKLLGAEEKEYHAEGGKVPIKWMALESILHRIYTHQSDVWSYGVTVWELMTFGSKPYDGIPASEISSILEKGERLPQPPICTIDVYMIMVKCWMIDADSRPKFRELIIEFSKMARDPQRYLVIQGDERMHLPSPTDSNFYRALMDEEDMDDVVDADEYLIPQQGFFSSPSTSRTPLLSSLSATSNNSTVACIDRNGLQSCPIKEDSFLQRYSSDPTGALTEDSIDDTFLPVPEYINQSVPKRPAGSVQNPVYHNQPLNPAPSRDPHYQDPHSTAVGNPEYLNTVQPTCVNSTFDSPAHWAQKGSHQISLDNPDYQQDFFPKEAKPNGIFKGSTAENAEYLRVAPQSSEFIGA

Broadly, the inhibition is the relative decrease from the control value, in per cent. As usually defined, the IC50 is the concentration at which inhibition is half-maximal. One may read the GI50 as the concentration giving 50% growth inhibition. `CN(C)C/C=C/C(=O)Nc1cc2c(Nc3ccc(F)c(Cl)c3)ncnc2cc1O[C@H]1CCOC1` [AFATINIB]: in test [1], the inhibition was determined as 102%. In addition, in test [2], the IC50 amounted to 0.00169 µM. In addition, the concentration for 50% growth inhibition (GI50) in the test with NCI-H358 is 0.001 µM; in the test on PC-9 it was 0.00037 µM; in the test on Calu-3, 0.00277 µM; in test [3] it was 0.00023 µM.

As for `C=CC(=O)Oc1cc2c(Nc3ccc(Cl)c(Cl)c3F)ncnc2cc1OC`, the inhibition in test [1] amounted to 71.5%. Further, the 50% inhibitory concentration (IC50) was determined as 0.00054 µM in test [4] and 0.0544 µM in test [2]. In addition, the GI50 in the test with NCI-H358 was 0.619 µM; in the test on PC-9 it was 0.0923 µM; with Calu-3, 1.34 µM; in test [3] it was > 2 µM.

In the case of `C=CC(=O)N1CCN(C(=O)Oc2cc3c(Nc4ccc(C#N)cc4)ncnc3cc2OC)[C@H](C)C1`, the inhibition in test [1] is 4.4%.

As to `C=CC(=O)N1CCN(C(=O)Oc2cc3c(Nc4ccc(C#N)c(F)c4)ncnc3cc2OC)[C@H](C)C1`, the inhibition in test [1] came to 2.3%.

Turning to `C=C(F)C(=O)N1C[C@@H]2C[C@H]1CN2C(=O)Oc1cc2c(Nc3ccc(Cl)c(Cl)c3F)ncnc2cc1OC`, in test [1], the inhibition is 47.9%.

With `C=CC(=O)N1CCN(C(=O)Oc2cc3c(Nc4cccc(Cl)c4F)ncnc3cc2OC)[C@H](C)C1`, in test [1], the inhibition worked out at 53.4%. Besides, the 50% inhibitory concentration (IC50) is 0.00034 µM in test [4] and 0.152 µM in test [2]. For the same compound, the 50% growth inhibitory concentration (GI50) is 0.464 µM in the test with NCI-H358, 0.00603 µM in the test with PC-9, 0.264 µM in the test on Calu-3 and > 2 µM in test [3].

For the compound `C=C(C(=O)N1CCN(C(=O)Oc2cc3c(Nc4ccc(Cl)c(Cl)c4F)ncnc3cc2OC)[C@H](C)C1)C(F)(F)F`, the inhibition in test [1] was 82.7%. For the same compound, the values for the IC50 in test [4] and in test [2] were 0.00038 µM and 0.0282 µM, respectively. In addition, the GI50 was 1.02 µM in the test with NCI-H358, 0.0908 µM in the test on PC-9, 0.553 µM with Calu-3 and > 2 µM in test [3].

As to `C=CC(=O)N1CCN(C(=O)Oc2cc3c(Nc4ccc5ccccc5c4)ncnc3cc2OC)[C@H](C)C1`, in test [1], the inhibition amounted to 30.8%.

For `C=C(C)C(=O)N1CCN(C(=O)Oc2cc3c(Nc4ccc(Cl)c(Cl)c4F)ncnc3cc2OC)[C@H](C)C1`, the inhibition in test [1] stood at 43.6%.

Turning to `C=CC(=O)N1CCN(C(=O)Oc2cc3c(Nc4ccc(Cl)c(Cl)c4F)ncnc3cc2OC)[C@H](C)C1`, the inhibition in test [1] was 48.9%.

In the case of `C=CC(=O)N1CCN(C(=O)Oc2cc3c(Nc4cc(C(C)(C)C)no4)ncnc3cc2OC)[C@H](C)C1`, in test [1], the inhibition stood at 14.6%.

For the compound `C=C(F)C(=O)N1CCN(C(=O)Oc2cc3c(Nc4ccc(Cl)c(Cl)c4F)ncnc3cc2OC)[C@H](C)C1`, in test [1], the inhibition is 41.1%.

Turning to `C=CC(=O)N1CCC(Oc2cc3c(Nc4ccc(Cl)c(Cl)c4F)ncnc3cc2OC)CC1` [POZIOTINIB], the inhibition in test [1] was determined as 97.1%. Moreover, in test [2], the IC50 stood at 0.00388 µM. In addition, the GI50 was 0.00867 µM in the test with NCI-H358, 0.0009 µM with PC-9, 0.0101 µM in the test on Calu-3 and 0.00227 µM in test [3].

For the compound `C=CC(=O)N1C[C@@H]2C[C@H]1CN2C(=O)Oc1cc2c(Nc3ccc(Cl)c(Cl)c3F)ncnc2cc1OC`, in test [1], the inhibition was found to be 95.8%. The 50% inhibitory concentration (IC50) in test [4] worked out at 0.0003 µM; in test [2] it was 0.00607 µM. In addition, the GI50 was 0.0233 µM in the test with NCI-H358, 0.00195 µM in the test on PC-9, 0.0231 µM in the test on Calu-3 and 0.0416 µM in test [3].

For the compound `C#CC(=O)N1CCN(C(=O)Oc2cc3c(Nc4ccc(Cl)c(Cl)c4F)ncnc3cc2OC)[C@H](C)C1`, the inhibition in test [1] came to 94%. Besides, the concentration for half-maximal inhibition (IC50) worked out at 0.00032 µM in test [4] and 0.0222 µM in test [2]. Further, the GI50 with NCI-H358 was 0.671 µM; with PC-9, 0.299 µM; in the test with Calu-3, 0.718 µM; in test [3], > 2 µM.

Regarding `C=CC(=O)N1CCN(C(=O)Oc2cc3c(Nc4ccc(F)c(C#N)c4)ncnc3cc2OC)[C@H](C)C1`, the inhibition in test [1] worked out at 13.9%.

`C=CC(=O)N1CCN(C(=O)Oc2cc3c(Nc4ccc(C#N)c(Cl)c4)ncnc3cc2OC)[C@H](C)C1`: in test [1], the inhibition came out at 11.9%.

In the case of `C=CC(=O)N1CCN(C(=O)Oc2cc3c(Nc4ccc5scnc5c4)ncnc3cc2OC)[C@H](C)C1`, the inhibition in test [1] amounted to 5.8%.

On to `C=CC(=O)N1CCN(C(=O)Oc2cc3c(Nc4cnc5ccccc5c4)ncnc3cc2OC)[C@H](C)C1`, for which the inhibition in test [1] was determined as 14.9%.

As for `C=CC(=O)N1CCN(C(=O)Oc2cc3c(Nc4ccc5ncccc5c4)ncnc3cc2OC)[C@H](C)C1`, in test [1], the inhibition amounted to 2.6%.

On to `C=C(F)C(=O)N1CCN(C(=O)Oc2cc3c(Nc4cnc5ccccc5c4)ncnc3cc2OC)[C@H](C)C1`, for which the inhibition in test [1] stood at 11.5%.
